ChEMBL document CHEMBL1201862, “PubChem BioAssay data set” (2004)
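Five concentrations, 48 hours, 96-well plates. GI50 = concentration required for 50% inhibition of growth.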 Activity calls are given as the source filed them. Rule as the data show it: active = GI50 up to about 1.1 µM and inactive = higher.

Columns and labels:
Experiment in all cases: growth of human tumour cells (NCI), 48 h
KM12 = system: KM12
A549 = system: A549
RPMI-8226 = system: RPMI-8226
HL-60 = system: HL-60
BT-549 = system: BT-549
CCRF-CEM = system: CCRF-CEM
T47D = system: T47D
OVCAR-8 = system: OVCAR-8
SR = system: SR
OVCAR-5 = system: OVCAR-5
LOX IMVI = system: LOX IMVI
HCC 2998 = system: HCC 2998
U-251 = system: U-251
DU-145 = system: DU-145
HOP-62 = system: HOP-62
A498 = system: A498
786-0 = system: 786-0
K562 = system: K562
SNB-19 = system: SNB-19
NCI-H23 = system: NCI-H23
SF-295 = system: SF-295
NCI-H522 = system: NCI-H522
UO-31 = system: UO-31
RXF 393 = system: RXF 393
NCI/ADR-RES = system: NCI/ADR-RES
HCT-116 = system: HCT-116
SK-MEL-28 = system: SK-MEL-28
TK-10 = system: TK-10
M14 = system: M14
NCI-H460 = system: NCI-H460
SNB-75 = system: SNB-75
OVCAR-3 = system: OVCAR-3
IGROV-1 = system: IGROV-1
SN12C = system: SN12C
HOP-92 = system: HOP-92
OVCAR-4 = system: OVCAR-4
SW-620 = system: SW-620
MDA-N = system: MDA-N
SK-MEL-2 = system: SK-MEL-2
Hs-578T = system: Hs-578T
CAKI-1 = system: CAKI-1
SF-268 = system: SF-268
ACHN = system: ACHN
HT-29 = system: HT-29
COLO 205 = system: COLO 205
UACC-257 = system: UACC-257
PC-3 = system: PC-3
HCT-15 = system: HCT-15
UACC-62 = system: UACC-62
MOLT-4 = system: MOLT-4
MCF7 = system: MCF7
SK-MEL-5 = system: SK-MEL-5
Malme-3M = system: Malme-3M
NCI-H226 = system: NCI-H226
SK-OV-3 = system: SK-OV-3
MDA-MB-435 = system: MDA-MB-435
EKVX = system: EKVX
SF-539 = system: SF-539
MDA-MB-231 = system: MDA-MB-231

**Q.** What does the source list for `CCOC(=O)c1cccc(/N=N/c2nc[nH]c2/C=C/C(=O)OC)c1`?
**A.** GI50 (KM12): 15.8 µM (inactive); GI50 (A549): 39.5 µM (inactive); GI50 (RPMI-8226): 9.02 µM (inactive); GI50 (HL-60): 3.37 µM (inactive); GI50 (BT-549): 42.6 µM (inactive); GI50 (CCRF-CEM): 3.95 µM (inactive); GI50 (T47D): 9.95 µM (inactive); GI50 (OVCAR-8): 16.5 µM (inactive); GI50 (SR): 2.11 µM (inactive); GI50 (OVCAR-5): 76.6 µM (inactive); GI50 (LOX IMVI): 7.43 µM (inactive); GI50 (HCC 2998): 11 µM (inactive); GI50 (U-251): 6.73 µM (inactive); GI50 (DU-145): 37.4 µM (inactive); GI50 (HOP-62): 6.35 µM (inactive); GI50 (A498): 22.6 µM (inactive); GI50 (786-0): 7.36 µM (inactive); GI50 (K562): 4.06 µM (inactive); GI50 (SNB-19): 30.5 µM (inactive); GI50 (NCI-H23): 36.3 µM (inactive); GI50 (SF-295): 12.9 µM (inactive); GI50 (NCI-H522): 9.38 µM (inactive); GI50 (UO-31): 8.15 µM (inactive); GI50 (RXF 393): 16.4 µM (inactive); GI50 (NCI/ADR-RES): 4.1 µM (inactive); GI50 (HCT-116): 4.17 µM (inactive); GI50 (SK-MEL-28): 18.1 µM (inactive); GI50 (TK-10): 28.4 µM (inactive); GI50 (M14): 13.3 µM (inactive); GI50 (NCI-H460): 16.5 µM (inactive); GI50 (SNB-75): 18.5 µM (inactive); GI50 (OVCAR-3): 3.15 µM (inactive); GI50 (IGROV-1): 7.53 µM (inactive); GI50 (SN12C): 5.97 µM (inactive); GI50 (HOP-92): 45.1 µM (inactive); GI50 (OVCAR-4): 6.58 µM (inactive); GI50 (SW-620): 6.47 µM (inactive); GI50 (MDA-N): 28.4 µM (inactive); GI50 (SK-MEL-2): 23.7 µM (inactive); GI50 (Hs-578T): 53.5 µM (inactive); GI50 (CAKI-1): 4.97 µM (inactive); GI50 (SF-268): 8.79 µM (inactive); GI50 (ACHN): 16.5 µM (inactive); GI50 (HT-29): 6.98 µM (inactive); GI50 (COLO 205): 4.39 µM (inactive); GI50 (UACC-257): 12.9 µM (inactive); GI50 (PC-3): 17.8 µM (inactive); GI50 (HCT-15): 5.13 µM; GI50 (UACC-62): 23.6 µM (inactive); GI50 (MOLT-4): 3.01 µM (inactive); GI50 (MCF7): 4.18 µM (inactive); GI50 (SK-MEL-5): 7.36 µM (inactive); GI50 (Malme-3M): 8.71 µM (inactive); GI50 (NCI-H226): 64.4 µM (inactive); GI50 (SK-OV-3): 44.8 µM (inactive); GI50 (MDA-MB-435): 37 µM (inactive); GI50 (EKVX): 26.5 µM (inactive); GI50 (SF-539): 7.14 µM (inactive); GI50 (MDA-MB-231): 4.39 µM (inactive)

**Q.** For `O=C(N/N=C\c1c(O)ccc2ccccc12)c1ccncc1`, which GI50 (KM12) is on record?
**A.** The GI50 was 2.7 µM (inactive).

**Q.** What about the GI50 (A549) of the same compound?
**A.** The GI50 was 0.789 µM (active).

**Q.** And the GI50 (RPMI-8226)?
**A.** The GI50 was 0.364 µM (active).

**Q.** What about the GI50 (HL-60) of the same compound?
**A.** The GI50 was 0.518 µM (active).

**Q.** What about the GI50 (BT-549) of the same compound?
**A.** Its GI50 is 0.927 µM (active).

**Q.** What about the GI50 (CCRF-CEM) of the same compound?
**A.** Its GI50 is 0.0887 µM (active).

**Q.** And the GI50 (T47D)?
**A.** Its GI50 is 2.49 µM (inactive).

**Q.** What about the GI50 (OVCAR-8) of the same compound?
**A.** The GI50 was 0.574 µM (active).

**Q.** And the GI50 (SR)?
**A.** Its GI50 is 0.558 µM (active).

**Q.** And the GI50 (OVCAR-5)?
**A.** The GI50 was > 6.85 µM (inactive).

**Q.** What about the GI50 (LOX IMVI) of the same compound?
**A.** The GI50 was 0.301 µM (active).

**Q.** And the GI50 (HCC 2998)?
**A.** The GI50 was > 11.4 µM (inactive).

**Q.** And the GI50 (U-251)?
**A.** Its GI50 is 0.29 µM (active).

**Q.** What about the GI50 (DU-145) of the same compound?
**A.** Its GI50 is 2.88 µM (inactive).

**Q.** What about the GI50 (HOP-62) of the same compound?
**A.** The GI50 was 1.31 µM (inactive).

**Q.** What about the GI50 (A498) of the same compound?
**A.** The GI50 was 2.21 µM (inactive).

**Q.** What about the GI50 (786-0) of the same compound?
**A.** The GI50 was 0.2 µM (active).

**Q.** What about the GI50 (K562) of the same compound?
**A.** Its GI50 is 0.0553 µM (active).

**Q.** What about the GI50 (SNB-19) of the same compound?
**A.** The GI50 was 1.21 µM (inactive).

**Q.** What about the GI50 (NCI-H23) of the same compound?
**A.** Its GI50 is 1.53 µM (inactive).

**Q.** What about the GI50 (SF-295) of the same compound?
**A.** The GI50 was > 5.98 µM (inactive).

**Q.** And the GI50 (NCI-H522)?
**A.** Its GI50 is 0.638 µM (active).

**Q.** And the GI50 (UO-31)?
**A.** The GI50 was 0.356 µM (active).

**Q.** What about the GI50 (RXF 393) of the same compound?
**A.** Its GI50 is 0.383 µM (active).

**Q.** And the GI50 (NCI/ADR-RES)?
**A.** Its GI50 is 0.562 µM (active).

**Q.** What about the GI50 (HCT-116) of the same compound?
**A.** The GI50 was 0.191 µM (active).

**Q.** And the GI50 (SK-MEL-28)?
**A.** Its GI50 is 0.649 µM (active).

**Q.** What about the GI50 (TK-10) of the same compound?
**A.** The GI50 was > 7.23 µM (inactive).

**Q.** What about the GI50 (M14) of the same compound?
**A.** The GI50 was 0.474 µM (active).

**Q.** And the GI50 (SNB-75)?
**A.** Its GI50 is 2.75 µM (inactive).

**Q.** What about the GI50 (OVCAR-3) of the same compound?
**A.** Its GI50 is 1.22 µM (inactive).

**Q.** What about the GI50 (IGROV-1) of the same compound?
**A.** The GI50 was 0.148 µM (active).

**Q.** What about the GI50 (SN12C) of the same compound?
**A.** The GI50 was 0.231 µM (active).

**Q.** And the GI50 (HOP-92)?
**A.** The GI50 was 1.31 µM (inactive).

**Q.** What about the GI50 (OVCAR-4) of the same compound?
**A.** The GI50 was 0.237 µM (active).

**Q.** What about the GI50 (SW-620) of the same compound?
**A.** The GI50 was 0.769 µM (active).

**Q.** What about the GI50 (MDA-N) of the same compound?
**A.** Its GI50 is 1.33 µM (inactive).

**Q.** And the GI50 (SK-MEL-2)?
**A.** Its GI50 is 0.257 µM (active).

**Q.** And the GI50 (Hs-578T)?
**A.** The GI50 was > 15.3 µM (inactive).

**Q.** What about the GI50 (CAKI-1) of the same compound?
**A.** Its GI50 is 1 µM (active).

**Q.** And the GI50 (SF-268)?
**A.** The GI50 was 0.341 µM (active).

**Q.** And the GI50 (ACHN)?
**A.** Its GI50 is 0.206 µM (active).

**Q.** What about the GI50 (HT-29) of the same compound?
**A.** The GI50 was 1.7 µM (inactive).

**Q.** What about the GI50 (COLO 205) of the same compound?
**A.** The GI50 was 0.82 µM (active).

**Q.** And the GI50 (UACC-257)?
**A.** Its GI50 is 1.22 µM (inactive).

**Q.** What about the GI50 (PC-3) of the same compound?
**A.** Its GI50 is 0.752 µM (active).

**Q.** And the GI50 (HCT-15)?
**A.** The GI50 was 0.0991 µM.

**Q.** And the GI50 (UACC-62)?
**A.** The GI50 was 0.467 µM (active).

**Q.** And the GI50 (MOLT-4)?
**A.** The GI50 was 0.0313 µM (active).

**Q.** What about the GI50 (MCF7) of the same compound?
**A.** Its GI50 is 3.09 µM (inactive).

**Q.** What about the GI50 (SK-MEL-5) of the same compound?
**A.** Its GI50 is 0.341 µM (active).

**Q.** And the GI50 (NCI-H226)?
**A.** The GI50 was 0.628 µM (active).

**Q.** What about the GI50 (SK-OV-3) of the same compound?
**A.** Its GI50 is 0.693 µM (active).

**Q.** And the GI50 (MDA-MB-435)?
**A.** The GI50 was 1.65 µM (inactive).

**Q.** And the GI50 (SF-539)?
**A.** The GI50 was 0.675 µM (active).

**Q.** What about the GI50 (MDA-MB-231) of the same compound?
**A.** Its GI50 is 0.254 µM (active).
